Converted amounts (≈) assume the structure as drawn. Where two headings read alike, the source gives them in different places. Marks after values point to notes of the source that are not given here.
How the values were obtained:
Format in all cases: cell-based, Escherichia coli
APEC O1-63 = assay: Antimicrobial susceptibility, CAMHB micro-dilution (CLSI); conditions: APEC O1-63, CAMHB, (R) = resistant
Source text: (§1) Initially, antimicrobial susceptibility profile was established for all the tested APEC serotypes using cation-adjusted Muller-Hinton broth (CAMHB) micro-dilution method according to clinical and laboratory standards institute (CLSI) guidelines.

APEC O109 = assay: as above; conditions: (R) = resistant
Source text: as §1

APEC O115 = assay: as above; conditions: (R) = resistant
Source text: as §1

APEC O15 = assay: as above; conditions: (R) = resistant
Source text: as §1

APEC O18 = assay: as above; conditions: (R) = resistant
Source text: as §1

APEC O1 = assay: as above; conditions: (R) = resistant
Source text: as §1

APEC O2-211 = assay: as above; conditions: APEC O2-211, CAMHB, (R) = resistant
Source text: as §1

APEC O2 = assay: as above; conditions: (R) = resistant
Source text: as §1

APEC O35 = assay: as above; conditions: (R) = resistant
Source text: as §1

APEC O78-53 = assay: as above; conditions: APEC O78-53, CAMHB, (R) = resistant
Source text: as §1

APEC O78 [1] = assay: as above; conditions: (R) = resistant
Source text: as §1

APEC O8 = assay: as above; conditions: (R) = resistant
Source text: as §1

E. coli ATCC 25922 = assay: Antimicrobial susceptibility, quality control strain (CLSI); conditions: E. coli ATCC 25922 quality control strain, CAMHB
Source text: as §1

APEC O78 [2] = assay: Primary screening, growth inhibition of APEC O78; conditions: separate experiment, DMSO 1% to 32%, M63 media, 12 h
Experimental: To identify the APEC growth inhibitors, SM library was screened against APEC O78 which is one of the most frequently isolated APEC serotypes from avian colibacillosis cases. One microlitre SMs (final concentration of 100 µM) were added using a slotted pin tool (V and P Scientific, San Diego, CA, USA) to the wells of the 96-well plate containing 100 µL of overnight grown 0.05 OD600 (7 × 10^7 CFU/mL) adjusted APEC culture. Controls (four replicates/plate) containing 1 µL of 100% DMSO (final concentration of 1%), 1 µL chloramphenicol (CHL, #C0378 Sigma-Aldrich) (20 µg/mL), 1 µL kanamycin (KAN, #60615 Sigma-Aldrich) (50 µg/mL), and 100 µL of M63 media were included. To determine the effect of DMSO on APEC growth, antimicrobial activity of DMSO was determined at different concentrations (1% to 32%) in a separate experiment. Plate was then incubated at 37 °C for 12 h in Sunrise - Absorbance microplate reader (Tecan Group Ltd. San Jose, CA) with kinetic OD600 measurement every 30 mins. The quality of screening was assessed by calculating the Z′-score as described previously. The growth inhibition of APEC was calculated by using the formula as previously described[13],[14]. The SMs inhibiting at least 80% of the APEC growth were selected as primary hits. […]

APEC O78 [3] = assay: Crystal violet (CV) uptake assay; conditions: 2X MBC, 30 mins; P < 0.05, Student's t-test
Experimental: (§2) Membrane permeability assays (crystal violet (CV) uptake and loss of 260/280 nm absorbing materials) were conducted as described previously. […] CV uptake was measured using the formula: (OD DMSO − OD SM/OD DMSO × 100). Two independent experiments in duplicates were conducted.

APEC O78 [4] = assay: Loss of 260/280 nm absorbing materials assay; conditions: 2X MBC, 1 h
Experimental: as §2

[5] = Escherichia coli, read-out: MIC
[6] = Escherichia coli, ATCC25922, read-out: MIC

Row | Compound | MIC (APEC O1-63; [5]) [µg/mL] | MIC (APEC O109; [5]) [µg/mL] | MIC (APEC O115; [5]) [µg/mL] | MIC (APEC O15; [5]) [µg/mL] | MIC (APEC O18; [5]) [µg/mL] | MIC (APEC O1; [5]) [µg/mL] | MIC (APEC O2-211; [5]) [µg/mL] | MIC (APEC O2; [5]) [µg/mL] | MIC (APEC O35; [5]) [µg/mL] | MIC (APEC O78-53; [5]) [µg/mL] | MIC (APEC O78 [1]; [5]) [µg/mL] | MIC (APEC O8; [5]) [µg/mL] | MIC (E. coli ATCC 25922; [6]) [µg/mL] | also measured
1 | CC1(C)S[C@@H]2[C@H](NC(=O)[C@H](N)c3ccccc3)C(=O)N2[C@H]1C(=O)O [Ampicillin, ampicillin] | 4 (≈ 11.4 µM) | > 64 | > 64 | 2 (≈ 5.72 µM) | 4 (≈ 11.4 µM) | > 64 | 4 (≈ 11.4 µM) | > 64 | 2 (≈ 5.72 µM) | 4 (≈ 11.4 µM) | > 64 | 4 (≈ 11.4 µM) | 8 (≈ 22.9 µM) | –
2 | C[S+](C)[O-] [DMSO, dimethyl sulfoxide] | – | – | – | – | – | – | – | – | – | – | – | – | – | DMSO concentration inhibitory to APEC (APEC O78 [2]): ≥ 8%
3 | O=C(O)CN(CCN(CC(=O)O)CC(=O)O)CC(=O)O [EDTA, ethylenediaminetetraacteic acid, reference compound] | – | – | – | – | – | – | – | – | – | – | – | – | – | uptake of crystal violet compared with DMSO (APEC O78 [3]): increased the uptake of crystal violet; 260 nm absorbing materials in supernatant compared with DMSO (APEC O78 [4]): significantly (P < 0.05, Student’s t-test) increased; Absorbance 280 nm of treated supernatant (APEC O78 [4]; DMSO 2.58, superscript a P < 0.05 vs DMSO): 2.60; Absorbance 260 nm of treated supernatant (APEC O78 [4]; DMSO 3.77, superscript a P < 0.05 vs DMSO): 4.00^a
4 | CN(C)[C@@H]1C(O)=C(C(N)=O)C(=O)[C@@]2(O)C(O)=C3C(=O)c4c(O)cccc4[C@@](C)(O)[C@H]3C[C@@H]12 [Tetracycline, tetracycline] | 16 (≈ 36 µM) | 1 (≈ 2.25 µM) | > 64 | > 64 | 2 (≈ 4.5 µM) | > 64 | > 64 | > 64 | 1 (≈ 2.25 µM) | > 64 | 32 (≈ 72 µM) | > 64 | 0.5 (≈ 1.13 µM) | –
5 | colistin | – | – | – | – | – | – | – | – | – | – | – | – | – | MIC (APEC O1-63): 4 µg/mL; MIC (APEC O109): 0.5 µg/mL; MIC (APEC O115): 1 µg/mL; MIC (APEC O15): 1 µg/mL; MIC (APEC O18): 1 µg/mL; MIC (APEC O1): 0.5 µg/mL; MIC (APEC O2-211): 4 µg/mL; MIC (APEC O2): 0.5 µg/mL; MIC (APEC O35): 1 µg/mL; MIC (APEC O78-53): 0.5 µg/mL; MIC (APEC O78 [1]): 0.25 µg/mL; MIC (APEC O8): 1 µg/mL; MIC (E. coli ATCC 25922): 1 µg/mL

— paper PMC6193035, “Novel small molecules affecting cell membrane as potential therapeutics for avian pathogenic Escherichia coli” (Scientific Reports, 2018)
